For orientation: inhibition means the change of the read-out against control, counted positive when it falls.

Results on two compounds are retold here after ChEMBL document CHEMBL5653615 (J Biol Chem, 2013).

Assay [1] deals with T1, Tyrosine-protein kinase JAK3 (Homo sapiens) (UniProt P52333).
T1 sequence (whole entry): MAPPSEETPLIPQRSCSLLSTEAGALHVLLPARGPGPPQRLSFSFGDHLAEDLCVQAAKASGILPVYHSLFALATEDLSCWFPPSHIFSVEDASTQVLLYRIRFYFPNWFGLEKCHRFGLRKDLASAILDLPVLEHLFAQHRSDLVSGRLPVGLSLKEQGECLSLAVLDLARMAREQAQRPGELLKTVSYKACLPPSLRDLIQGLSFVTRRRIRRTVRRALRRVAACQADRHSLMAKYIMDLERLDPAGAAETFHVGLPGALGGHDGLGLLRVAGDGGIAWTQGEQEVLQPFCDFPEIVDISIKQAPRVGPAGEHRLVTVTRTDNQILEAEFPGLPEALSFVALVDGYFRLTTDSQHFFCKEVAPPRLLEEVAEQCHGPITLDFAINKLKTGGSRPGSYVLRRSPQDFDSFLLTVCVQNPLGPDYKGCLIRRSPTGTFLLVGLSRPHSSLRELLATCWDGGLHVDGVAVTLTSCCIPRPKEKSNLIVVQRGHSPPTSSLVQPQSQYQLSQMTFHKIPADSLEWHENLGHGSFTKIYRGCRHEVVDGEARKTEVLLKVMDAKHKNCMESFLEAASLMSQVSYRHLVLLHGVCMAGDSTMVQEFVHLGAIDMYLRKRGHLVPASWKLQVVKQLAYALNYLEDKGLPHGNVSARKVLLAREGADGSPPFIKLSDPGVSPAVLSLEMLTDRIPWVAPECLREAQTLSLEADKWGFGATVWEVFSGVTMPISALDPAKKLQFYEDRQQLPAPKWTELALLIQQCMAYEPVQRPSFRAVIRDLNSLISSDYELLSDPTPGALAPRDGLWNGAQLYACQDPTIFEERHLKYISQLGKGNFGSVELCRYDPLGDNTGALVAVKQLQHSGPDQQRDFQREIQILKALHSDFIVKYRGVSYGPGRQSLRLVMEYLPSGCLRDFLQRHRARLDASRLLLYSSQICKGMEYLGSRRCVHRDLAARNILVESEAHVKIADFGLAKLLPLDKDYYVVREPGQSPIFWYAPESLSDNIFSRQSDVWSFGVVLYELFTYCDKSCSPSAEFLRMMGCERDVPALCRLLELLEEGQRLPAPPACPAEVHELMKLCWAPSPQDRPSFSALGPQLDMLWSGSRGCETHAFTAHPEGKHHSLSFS
The assay is described as follows: Inhibition of human JAK3 at 500 nM by HotSpot assay relative to control.

For assay [2], the target named is Calcium/calmodulin-dependent protein kinase type 1 (Homo sapiens) (UniProt Q14012). The assay is described as follows: Inhibition of human CAMK1a at 500 nM by HotSpot assay relative to control.
Calcium/calmodulin-dependent protein kinase type 1 (Homo sapiens), sequence (Q14012 whole entry, looked up): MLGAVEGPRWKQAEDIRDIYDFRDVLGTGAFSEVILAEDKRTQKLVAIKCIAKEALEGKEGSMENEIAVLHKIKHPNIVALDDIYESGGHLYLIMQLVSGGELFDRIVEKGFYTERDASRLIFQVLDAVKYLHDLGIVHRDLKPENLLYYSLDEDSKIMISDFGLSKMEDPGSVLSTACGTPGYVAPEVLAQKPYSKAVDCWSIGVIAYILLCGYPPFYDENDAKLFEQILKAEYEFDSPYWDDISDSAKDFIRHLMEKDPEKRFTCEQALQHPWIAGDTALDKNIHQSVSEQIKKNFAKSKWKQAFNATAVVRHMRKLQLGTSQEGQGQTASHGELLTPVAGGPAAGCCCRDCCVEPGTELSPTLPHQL
Assay [3] addresses T2, Mitogen-activated protein kinase kinase kinase 5 (Homo sapiens) (UniProt Q99683).
T2 sequence (whole entry): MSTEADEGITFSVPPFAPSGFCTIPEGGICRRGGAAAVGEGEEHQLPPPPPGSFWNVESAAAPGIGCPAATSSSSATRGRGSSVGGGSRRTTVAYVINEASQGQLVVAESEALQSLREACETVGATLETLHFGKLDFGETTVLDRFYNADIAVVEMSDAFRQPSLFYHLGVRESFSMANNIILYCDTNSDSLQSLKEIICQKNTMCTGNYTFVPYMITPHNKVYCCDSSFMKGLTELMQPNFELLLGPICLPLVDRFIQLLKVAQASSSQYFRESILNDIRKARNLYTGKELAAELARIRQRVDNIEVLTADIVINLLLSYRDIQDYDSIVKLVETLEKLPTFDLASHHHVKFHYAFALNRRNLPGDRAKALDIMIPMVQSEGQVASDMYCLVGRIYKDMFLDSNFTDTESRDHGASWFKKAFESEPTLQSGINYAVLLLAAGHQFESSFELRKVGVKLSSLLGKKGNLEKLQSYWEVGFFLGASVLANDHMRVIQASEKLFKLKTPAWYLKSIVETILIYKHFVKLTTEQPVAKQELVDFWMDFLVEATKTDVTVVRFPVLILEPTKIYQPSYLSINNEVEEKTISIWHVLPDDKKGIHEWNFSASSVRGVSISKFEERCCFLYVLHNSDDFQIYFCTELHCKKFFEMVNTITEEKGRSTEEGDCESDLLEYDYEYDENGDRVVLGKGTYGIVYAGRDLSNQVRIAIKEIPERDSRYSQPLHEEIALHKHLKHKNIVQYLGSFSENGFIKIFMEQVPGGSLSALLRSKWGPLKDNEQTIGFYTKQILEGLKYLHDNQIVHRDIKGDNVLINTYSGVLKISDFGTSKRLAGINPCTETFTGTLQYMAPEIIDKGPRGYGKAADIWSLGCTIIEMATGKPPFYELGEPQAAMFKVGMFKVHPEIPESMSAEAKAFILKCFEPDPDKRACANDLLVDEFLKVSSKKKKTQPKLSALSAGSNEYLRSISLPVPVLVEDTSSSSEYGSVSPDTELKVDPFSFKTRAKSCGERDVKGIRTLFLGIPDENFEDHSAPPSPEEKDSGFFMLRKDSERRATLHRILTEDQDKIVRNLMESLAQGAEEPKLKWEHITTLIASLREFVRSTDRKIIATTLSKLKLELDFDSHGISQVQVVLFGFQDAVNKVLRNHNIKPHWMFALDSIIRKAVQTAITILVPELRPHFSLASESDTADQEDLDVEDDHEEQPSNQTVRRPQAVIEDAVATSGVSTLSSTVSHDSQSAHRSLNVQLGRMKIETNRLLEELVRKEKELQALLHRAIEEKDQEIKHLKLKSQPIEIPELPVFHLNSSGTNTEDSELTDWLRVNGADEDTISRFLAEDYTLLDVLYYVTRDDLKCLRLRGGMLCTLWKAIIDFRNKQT
The experiment in a line: Inhibition of human ASK1 at 500 nM by HotSpot assay relative to control.

For the compound `Nc1n[nH]c2nnc(-c3c(-c4ccccc4)nn4ccccc34)cc12`, the inhibition in assay [1] is -4.59%; in assay [2], -2.35%; in assay [3], 0.68%.

Turning to `Oc1n[nH]c2nnc(-c3c(-c4ccccc4)nn4ccccc34)cc12`, the inhibition was -3.22% in assay [1], 0.02% in assay [2] and 0.05% in assay [3].
